Measured values taken from US9833497B2, “Human originated EGF domain proteins and use of the same” (CHENGDU SOURCEBIO LIMITED-LIABILITY COMPANY, priority 2013, dated 2017).

Tests used:
Assay type in all cases: cell-based
Klebsiella pneumonia = assay: MIC against Gram-negative bacteria: Klebsiella pneumonia; details: for MIC against K. pneumonia: Klebsiella pneumonia; for MIC against K. pneumonia / MIC (μg/mL) K. pneumonia / MIC K. pneumonia: 5×10^5 CFU/mL; for MIC K. pneumonia: two-fold serial dilution
Method in brief: (§1)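 Growth inhibition by human EGF domain proteins was scored in LB liquid culture seeded at 5×10^5 CFU/mL. Protein was applied as a two-fold dilution series in triplicate, with shaking incubation at 37° C; MIC is the lowest concentration giving no growth.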

Proteus vulgaris = assay: MIC against Gram-negative bacteria: Proteus vulgaris; details: for MIC against P. vulgaris: Proteus vulgaris; for MIC against P. vulgaris / MIC (μg/mL) P. vulgaris / MIC P. vulgaris: 5×10^5 CFU/mL; for MIC P. vulgaris: two-fold serial dilution
Method in brief: as §1

E. coli DH5α = assay: Antibacterial activity: MIC and growth curve against E. coli DH5α in 96-well plate; details: minimal inhibitory concentration against E. coli DH5α; 96-well plate, 5×10^5 CFU/mL, 37° C., judged after 8 h
Method in brief: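 MIC taken as lowest protein level with no bacterial growth, tracked by A600 every 30 min during 37 °C, 175 rpm culture. Two-fold protein series 50-12.5 μg/mL final, triplicate wells, against 5×10^5 CFU/mL of LB-washed mid-log cells.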

Pseudomonas aeruginosa = assay: MIC against Gram-negative bacteria: Pseudomonas aeruginosa; details: for MIC against P. aeruginosa: Pseudomonas aeruginosa; for MIC against P. aeruginosa / MIC (μg/mL) P. aeruginosa / MIC P. aeruginosa: 5×10^5 CFU/mL; for MIC P. aeruginosa: two-fold serial dilution
Method in brief: as §1

Citrobacter diversus = assay: MIC against Gram-negative bacteria: Citrobacter diversus; details: for MIC against C. diversus: Citrobacter diversus; for MIC against C. diversus / MIC (μg/mL) C. diversus / MIC C. diversus: 5×10^5 CFU/mL; for MIC C. diversus: two-fold serial dilution
Method in brief: as §1

Enterobacter cloacae = assay: MIC against Gram-negative bacteria: Enterobacter cloacae; details: for MIC against E. cloacae: Enterobacter cloacae; for MIC against E. cloacae / MIC (μg/mL) E. cloacae / MIC E. cloacae: 5×10^5 CFU/mL; for MIC E. cloacae: two-fold serial dilution
Method in brief: as §1

Proteus mirabilis = assay: MIC against Gram-negative bacteria: Proteus mirabilis; details: for MIC against P. mirabilis: Proteus mirabilis; for MIC against P. mirabilis / MIC (μg/mL) P. mirabilis / MIC P. mirabilis: 5×10^5 CFU/mL; for MIC P. mirabilis: two-fold serial dilution
Method in brief: as §1

Serratia marcescens = assay: MIC against Gram-negative bacteria: Serratia marcescens; details: for MIC against S. marcescens: Serratia marcescens; for MIC against S. marcescens / MIC (μg/mL) S. marcescens / MIC S. marcescens: 5×10^5 CFU/mL; for MIC S. marcescens: two-fold serial dilution
Method in brief: as §1

Moraxella catarrhalis = assay: MIC against Gram-negative bacteria: Moraxella catarrhalis; details: for MIC against M. catarrhalis: Moraxella catarrhalis; for MIC against M. catarrhalis / MIC (μg/mL) M. catarrhalis / MIC M. catarrhalis: 5×10^5 CFU/mL; for MIC M. catarrhalis: two-fold serial dilution
Method in brief: as §1

Aeromonas hydrophila = assay: MIC against Gram-negative bacteria: Aeromonas hydrophila; details: for MIC against A. hydrophila: Aeromonas hydrophila; for MIC against A. hydrophila / MIC (μg/mL) A. hydrophila / MIC A. hydrophila: 5×10^5 CFU/mL; for MIC A. hydrophila: two-fold serial dilution
Method in brief: as §1

E. coli BL21 = assay: MIC against Gram-negative bacteria: E. coli BL21; details: for MIC against E. coli BL21 / MIC (μg/mL) E. coli BL21 / MIC E. coli BL21: 5×10^5 CFU/mL; for MIC E. coli BL21: two-fold serial dilution
Method in brief: as §1

[1] = E. coli BL21, 10 h cultivation at 37° C.
[2] = K. pneumonia, 10 h cultivation at 37° C.
[3] = P. vulgaris, 10 h cultivation at 37° C.
[4] = P. aeruginosa, 10 h cultivation at 37° C.
[5] = C. diversus, 10 h cultivation at 37° C.
[6] = E. cloacae, 10 h cultivation at 37° C.
[7] = P. mirabilis, 10 h cultivation at 37° C.
[8] = S. marcescens, 10 h cultivation at 37° C.
[9] = M. catarrhalis, 10 h cultivation at 37° C.
[10] = A. hydrophila, 10 h cultivation at 37° C.
[11] = E. coli BL21, 96-well plate, 37° C., 10 h

PRT1471 (GKNWCEEDMENGGCEYLCLPAPQINDHSPKYTCSCPSGYNVEENGRDCQ; listed as Homo sapiens)
50 µg/mL: MIC against P. vulgaris (Proteus vulgaris; 10 h cultivation at 37° C.) | MIC against P. aeruginosa (Pseudomonas aeruginosa; 10 h cultivation at 37° C.) | MIC against C. diversus (Citrobacter diversus; 10 h cultivation at 37° C.) | MIC against E. cloacae (Enterobacter cloacae; 10 h cultivation at 37° C.)
12.5 µg/mL: MIC against K. pneumonia (Klebsiella pneumonia; 10 h cultivation at 37° C.) | MIC (E. coli DH5α)
25 µg/mL: MIC against P. mirabilis (Proteus mirabilis; 10 h cultivation at 37° C.) | MIC against S. marcescens (Serratia marcescens; 10 h cultivation at 37° C.) | MIC against M. catarrhalis (Moraxella catarrhalis; 10 h cultivation at 37° C.) | MIC against A. hydrophila (Aeromonas hydrophila; 10 h cultivation at 37° C.) | MIC against E. coli BL21 (E. coli BL21; [1])

PRT813 (FGVNCSSSCSCGGAPCHGVTGQCRCPPGRTGEDCE; listed as Homo sapiens)
12.5 µg/mL: MIC (μg/mL) S. marcescens (Serratia marcescens; [8])
25 µg/mL: MIC (μg/mL) C. diversus (Citrobacter diversus; [5]) | MIC (μg/mL) E. cloacae (Enterobacter cloacae; [6]) | MIC (μg/mL) P. mirabilis (Proteus mirabilis; [7]) | MIC (μg/mL) M. catarrhalis (Moraxella catarrhalis; [9])
50 µg/mL: MIC (μg/mL) K. pneumonia (Klebsiella pneumonia; [2]) | MIC (μg/mL) P. vulgaris (Proteus vulgaris; [3]) | MIC (E. coli DH5α) | MIC (μg/mL) P. aeruginosa (Pseudomonas aeruginosa; [4]) | MIC (μg/mL) A. hydrophila (Aeromonas hydrophila; [10]) | MIC (μg/mL) E. coli BL21 (E. coli BL21; [1])

PRT979 (LPDPCLSSPCAHGARCSVGPDGRFLCSCPPGYQGRSCR; listed as Homo sapiens)
12.5 µg/mL: MIC (Klebsiella pneumonia; [2]) | MIC (Proteus mirabilis; [7]) | MIC (Serratia marcescens; [8]) | MIC (Aeromonas hydrophila; [10]) | MIC (E. coli BL21; [1])
50 µg/mL: MIC (E. coli DH5α) | MIC (Pseudomonas aeruginosa; [4]) | MIC (Enterobacter cloacae; [6])
100 µg/mL: MIC (Citrobacter diversus; [5])
25 µg/mL: MIC (Proteus vulgaris; [3]) | MIC (Moraxella catarrhalis; [9])

PRT1048 (YGKRCVPCKCANHSFCHPSNGTCYCLAGWTGPDCS; listed as Homo sapiens)
12.5 µg/mL: MIC (E. coli DH5α) | MIC E. cloacae (Enterobacter cloacae; 10 h cultivation at 37° C.) | MIC P. mirabilis (Proteus mirabilis; 10 h cultivation at 37° C.) | MIC S. marcescens (Serratia marcescens; 10 h cultivation at 37° C.)
50 µg/mL: MIC P. vulgaris (Proteus vulgaris; 10 h cultivation at 37° C.) | MIC P. aeruginosa (Pseudomonas aeruginosa; 10 h cultivation at 37° C.) | MIC C. diversus (Citrobacter diversus; 10 h cultivation at 37° C.)
25 µg/mL: MIC K. pneumonia (Klebsiella pneumonia; 10 h cultivation at 37° C.) | MIC M. catarrhalis (Moraxella catarrhalis; 10 h cultivation at 37° C.) | MIC A. hydrophila (Aeromonas hydrophila; 10 h cultivation at 37° C.) | MIC E. coli BL21 (E. coli BL21; 10 h cultivation at 37° C.)

PRT1315 (FGPDCQSVCSCVHGVCNHGPRGDGSCLCFAGYTGPHCD; listed as Homo sapiens)
12.5 µg/mL: MIC against P. aeruginosa (Pseudomonas aeruginosa; 96-well plate, 37° C., 10 h) | MIC against C. diversus (Citrobacter diversus; 96-well plate, 37° C., 10 h) | MIC against P. mirabilis (Proteus mirabilis; 96-well plate, 37° C., 10 h) | MIC against S. marcescens (Serratia marcescens; 96-well plate, 37° C., 10 h) | MIC against A. hydrophila (Aeromonas hydrophila; 96-well plate, 37° C., 10 h) | MIC against E. coli BL21 (E. coli BL21; [11])
100 µg/mL: MIC against K. pneumonia (Klebsiella pneumonia; 96-well plate, 37° C., 10 h)
50 µg/mL: MIC against P. vulgaris (Proteus vulgaris; 96-well plate, 37° C., 10 h) | MIC against M. catarrhalis (Moraxella catarrhalis; 96-well plate, 37° C., 10 h)
25 µg/mL: MIC (E. coli DH5α) | MIC against E. cloacae (Enterobacter cloacae; 96-well plate, 37° C., 10 h)

PRT803 (HGKGCQLPCQCRHGASCDPRAGECLCAPGYTGVYCE; listed as Homo sapiens)
12.5 µg/mL: MIC (μg/mL) P. vulgaris (Proteus vulgaris; [3]) | MIC (μg/mL) P. aeruginosa (Pseudomonas aeruginosa; [4])
50 µg/mL: MIC (E. coli DH5α) | MIC (μg/mL) E. cloacae (Enterobacter cloacae; [6]) | MIC (μg/mL) P. mirabilis (Proteus mirabilis; [7]) | MIC (μg/mL) S. marcescens (Serratia marcescens; [8]) | MIC (μg/mL) E. coli BL21 (E. coli BL21; [1])
25 µg/mL: MIC (μg/mL) K. pneumonia (Klebsiella pneumonia; [2]) | MIC (μg/mL) C. diversus (Citrobacter diversus; [5]) | MIC (μg/mL) A. hydrophila (Aeromonas hydrophila; [10])
100 µg/mL: MIC (μg/mL) M. catarrhalis (Moraxella catarrhalis; [9])

PRT1100 (DIDECASDPCVNGGLCQDLLNKFQCLCDVAFAGERCE; listed as Homo sapiens)
100 µg/mL: MIC P. aeruginosa (Pseudomonas aeruginosa; 10 h cultivation at 37° C.) | MIC A. hydrophila (Aeromonas hydrophila; 10 h cultivation at 37° C.)
25 µg/mL: MIC K. pneumonia (Klebsiella pneumonia; 10 h cultivation at 37° C.) | MIC P. vulgaris (Proteus vulgaris; 10 h cultivation at 37° C.) | MIC E. coli BL21 (E. coli BL21; 10 h cultivation at 37° C.)
12.5 µg/mL: MIC (E. coli DH5α) | MIC C. diversus (Citrobacter diversus; 10 h cultivation at 37° C.) | MIC E. cloacae (Enterobacter cloacae; 10 h cultivation at 37° C.) | MIC P. mirabilis (Proteus mirabilis; 10 h cultivation at 37° C.) | MIC S. marcescens (Serratia marcescens; 10 h cultivation at 37° C.) | MIC M. catarrhalis (Moraxella catarrhalis; 10 h cultivation at 37° C.)

PRT1318 (DCTQCPGGFSNPCYGKGNCSDGIQGNGACLCFPDYKGIACH; listed as Homo sapiens)
50 µg/mL: MIC against K. pneumonia (Klebsiella pneumonia; 96-well plate, 37° C., 10 h) | MIC against P. vulgaris (Proteus vulgaris; 96-well plate, 37° C., 10 h) | MIC against C. diversus (Citrobacter diversus; 96-well plate, 37° C., 10 h)
25 µg/mL: MIC (E. coli DH5α) | MIC against P. aeruginosa (Pseudomonas aeruginosa; 96-well plate, 37° C., 10 h) | MIC against E. cloacae (Enterobacter cloacae; 96-well plate, 37° C., 10 h) | MIC against P. mirabilis (Proteus mirabilis; 96-well plate, 37° C., 10 h) | MIC against S. marcescens (Serratia marcescens; 96-well plate, 37° C., 10 h)
12.5 µg/mL: MIC against M. catarrhalis (Moraxella catarrhalis; 96-well plate, 37° C., 10 h) | MIC against A. hydrophila (Aeromonas hydrophila; 96-well plate, 37° C., 10 h) | MIC against E. coli BL21 (E. coli BL21; [11])

PRT819 (YGHNCSQACACFNGASCDPVHGQCHCAPGWMGPSCL; listed as Homo sapiens)
12.5 µg/mL: MIC (μg/mL) K. pneumonia (Klebsiella pneumonia; [2]) | MIC (E. coli DH5α) | MIC (μg/mL) P. aeruginosa (Pseudomonas aeruginosa; [4]) | MIC (μg/mL) P. mirabilis (Proteus mirabilis; [7]) | MIC (μg/mL) A. hydrophila (Aeromonas hydrophila; [10])
25 µg/mL: MIC (μg/mL) C. diversus (Citrobacter diversus; [5]) | MIC (μg/mL) E. cloacae (Enterobacter cloacae; [6]) | MIC (μg/mL) S. marcescens (Serratia marcescens; [8]) | MIC (μg/mL) E. coli BL21 (E. coli BL21; [1])
50 µg/mL: MIC (μg/mL) P. vulgaris (Proteus vulgaris; [3]) | MIC (μg/mL) M. catarrhalis (Moraxella catarrhalis; [9])

PRT832 (DVDECAAGLAQCAHGCLNTQGSFKCVCHAGYELGADGRQCY; listed as Homo sapiens)
12.5 µg/mL: MIC (μg/mL) K. pneumonia (Klebsiella pneumonia; [2]) | MIC (μg/mL) P. aeruginosa (Pseudomonas aeruginosa; [4]) | MIC (μg/mL) P. mirabilis (Proteus mirabilis; [7]) | MIC (μg/mL) S. marcescens (Serratia marcescens; [8]) | MIC (μg/mL) M. catarrhalis (Moraxella catarrhalis; [9]) | MIC (μg/mL) A. hydrophila (Aeromonas hydrophila; [10]) | MIC (μg/mL) E. coli BL21 (E. coli BL21; [1])
25 µg/mL: MIC (μg/mL) P. vulgaris (Proteus vulgaris; [3]) | MIC (μg/mL) C. diversus (Citrobacter diversus; [5]) | MIC (μg/mL) E. cloacae (Enterobacter cloacae; [6])
50 µg/mL: MIC (E. coli DH5α)
